Reference: the supplement of paper PMC10307832

Key:
Assay in all cases: relative viability (nuclei count vs DMSO), 5 days (fraction); higher = more cells survive
[1] = compound: CN(c1ncccc1CNc1nc(Nc2ccc3c(c2)CC(=O)N3)ncc1C(F)(F)F)S(C)(=O)=O + CC(=O)c1c(C)c2cnc(Nc3ccc(N4CCNCC4)cn3)nc2n(C2CCCC2)c1=O [Palbociclib] (partner 0.5 µM)
How it was run: (§1)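 Dosing by pin tool came one day after lung cancer cell lines were seeded in 1536-well plates, using either one drug or a fixed anchor-drug dose plus five library-drug doses (not always all listed) in √10 steps. After 5 days, nuclei were counted on 4× images. Relative viability is treated-well nuclei count divided by vehicle-well nuclei count, and values are medians of duplicate plates.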

[2] = compound: CN(c1ncccc1CNc1nc(Nc2ccc3c(c2)CC(=O)N3)ncc1C(F)(F)F)S(C)(=O)=O + N=C(N)NC(=N)NCCc1ccccc1 [Phenformin] (partner 250 µM)
How it was run: as §1

[3] = compound: CN(c1ncccc1CNc1nc(Nc2ccc3c(c2)CC(=O)N3)ncc1C(F)(F)F)S(C)(=O)=O + Nc1ncn([C@H]2C[C@H](O)[C@@H](CO)O2)c(=O)n1 [Decitabine] (partner 2 µM)
How it was run: as §1

[4] = compound: CN(c1ncccc1CNc1nc(Nc2ccc3c(c2)CC(=O)N3)ncc1C(F)(F)F)S(C)(=O)=O + CS(=O)(=O)N1CCN(Cc2cc3nc(-c4cccc5[nH]ncc45)nc(N4CCOCC4)c3s2)CC1 [Pictilisib] (partner 1 µM)
How it was run: as §1

Row | Cell Line | relative viability ([1]; first compound 0.01 µM) | relative viability ([1]; first compound 0.03162 µM) | relative viability ([1]; first compound 0.1 µM) | relative viability ([1]; first compound 0.3162 µM) | relative viability ([1]; first compound 1 µM) | relative viability ([2]; first compound 0.01 µM) | relative viability ([2]; first compound 0.03162 µM) | relative viability ([2]; first compound 0.1 µM) | relative viability ([2]; first compound 0.3162 µM) | relative viability ([2]; first compound 1 µM) | relative viability ([3]; first compound 0.01 µM) | relative viability ([3]; first compound 0.03162 µM) | relative viability ([3]; first compound 0.1 µM) | relative viability ([3]; first compound 0.3162 µM) | relative viability ([3]; first compound 1 µM) | relative viability ([4]; first compound 0.01 µM) | relative viability ([4]; first compound 0.03162 µM) | relative viability ([4]; first compound 0.1 µM) | relative viability ([4]; first compound 0.3162 µM) | relative viability ([4]; first compound 1 µM)
1 | NCI-H2087 | 0.23 | 0.277 | 0.258 | 0.252 | 0.279 | 0.522 | 0.518 | 0.424 | 0.475 | 0.454 | 0.312 | 0.255 | 0.256 | 0.36 | 0.299 | 0.852 | 0.77 | 0.978 | 0.914 | 0.951
2 | NCI-H2228 | 0.836 | 0.878 | 0.881 | 0.749 | 0.6 | 0.321 | 0.471 | 0.306 | 0.331 | 0.292 | – | – | – | – | – | 0.422 | 0.453 | 0.376 | 0.358 | 0.294
3 | NCI-H727 | 0.681 | 0.607 | 0.651 | 0.684 | 0.688 | 0.626 | 0.655 | 0.389 | 0.616 | 0.444 | 0.943 | 0.827 | 0.793 | 0.896 | 0.936 | 0.459 | 0.269 | 0.393 | 0.31 | 0.344
4 | NCI-H650 | 0.324 | 0.32 | 0.307 | 0.266 | 0.3 | 0.492 | 0.464 | 0.396 | 0.393 | 0.441 | 0.316 | 0.351 | 0.342 | 0.285 | 0.307 | 0.961 | 1.15 | 0.671 | 0.639 | 0.842
5 | NCI-H520 | 0.27 | 0.209 | 0.244 | 0.262 | 0.24 | 0.601 | 0.777 | 0.57 | 0.678 | 0.552 | 0.549 | 0.655 | 0.484 | 0.49 | 0.549 | 0.285 | 0.386 | 0.322 | 0.277 | 0.379
6 | EBC-1 | – | – | – | – | – | – | – | – | – | – | – | – | – | – | – | 0.365 | 0.325 | 0.391 | 0.36 | 0.305
7 | NCI-H661 | 0.406 | 0.385 | 0.429 | 0.383 | 0.341 | 0.285 | 0.286 | 0.289 | 0.277 | 0.294 | 0.551 | 0.649 | 0.589 | 0.56 | 0.568 | 0.578 | 0.335 | 0.405 | 0.378 | 0.383
8 | NCI-H1299 | – | – | – | – | – | – | – | – | – | – | – | – | – | – | – | 0.754 | 0.768 | 0.809 | 0.739 | 0.693
9 | LK-2 | 0.784 | 0.723 | 0.666 | 0.662 | 0.717 | 0.376 | 0.386 | 0.63 | 0.517 | 0.532 | 0.287 | 0.294 | 0.31 | 0.308 | 0.292 | 0.585 | 0.625 | 0.586 | 0.794 | 0.462
10 | NCI-H1993 | 0.479 | 0.64 | 0.669 | 0.652 | 0.597 | 0.511 | 0.543 | 0.448 | 0.468 | 0.452 | 0.624 | 0.609 | 0.56 | 0.574 | 0.605 | 0.832 | 0.754 | 0.856 | 0.828 | 0.775
11 | NCI-H838 | 0.243 | 0.237 | 0.211 | 0.204 | 0.204 | 0.604 | 0.671 | 0.575 | 0.504 | 0.396 | 0.46 | 0.472 | 0.5 | 0.444 | 0.397 | 0.431 | 0.482 | 0.471 | 0.448 | 0.395
12 | NCI-H1437 | 0.348 | 0.297 | 0.265 | 0.269 | 0.209 | 0.384 | 0.333 | 0.284 | 0.298 | 0.266 | 0.535 | 0.661 | 0.502 | 0.498 | 0.422 | 0.424 | 0.468 | 0.557 | 0.41 | 0.546
13 | NCI-H2170 | 0.422 | 0.434 | 0.39 | 0.382 | 0.388 | 0.404 | 0.47 | 0.424 | 0.332 | 0.323 | 0.528 | 0.463 | 0.417 | 0.459 | 0.448 | 0.355 | 0.312 | 0.316 | – | 0.332
14 | SW 900 | 0.513 | 0.48 | 0.52 | 0.52 | 0.456 | 0.745 | 0.735 | 0.602 | 0.515 | 0.581 | 0.437 | 0.466 | 0.425 | 0.449 | 0.454 | – | – | – | – | –
15 | NCI-H522 | 1.06 | 1.01 | 1.08 | 1.15 | 0.752 | 0.664 | 0.645 | 0.629 | 0.819 | 0.696 | 0.553 | 0.685 | 0.649 | 0.644 | 0.637 | – | – | – | – | –
16 | NCI-H596 | – | – | – | – | – | 0.807 | 0.745 | 0.657 | 0.611 | 0.763 | 1.15 | 1.01 | 1.11 | 1.03 | 1.13 | 0.409 | 0.37 | 0.428 | 0.456 | 0.37
17 | IA-LM | – | – | – | – | – | – | – | – | – | – | – | – | – | – | – | 0.348 | 0.292 | 0.309 | 0.32 | 0.276
18 | NCI-H1563 | – | – | – | – | – | 0.677 | 0.686 | 0.683 | 0.634 | 0.649 | – | – | – | – | – | 0.602 | 0.629 | 0.657 | 0.722 | 0.662
19 | NCI-H2342 | 0.564 | 0.536 | 0.548 | 0.497 | 0.455 | 0.638 | 0.563 | 0.475 | 0.522 | 0.475 | 0.802 | 0.728 | 0.631 | 0.742 | 0.717 | – | – | – | – | –
20 | CAL-12T | 0.44 | 0.341 | 0.416 | 0.407 | 0.366 | 0.628 | 0.523 | 0.536 | 0.512 | 0.444 | – | – | – | – | – | 0.43 | 0.305 | 0.28 | 0.318 | 0.498
